Patent US10888518B2, “Orodispersible tablet containing estetrol” (ESTETRA SPRL, priority 2015, dated 2021)

Tests used:
[1] = system: vagina, uterus, body weight, bone mass, bone strength, hot flushes, ovulation; details: rat models; dose-dependent; cited from earlier work
estrogen receptors = details: in vitro; cited from earlier work
[2] = system: human breast cancer cells; details: in vitro; cited from earlier work
[3] = Randomized, open-label, two-period, cross-over pharmacokinetic study, sublingual versus oral estetrol; format: in vivo, human; details: 10 mg estetrol, healthy female volunteers
Experimental: A randomized, open-label, two-period, cross-over, pharmacokinetic study is conducted to compare sublingual bioavailability of 10 mg estetrol administered in one 80 mg tablet with oral availability of estetrol contained in a 83 mg tablet containing 10 mg estetrol. These tablets are administered sublingually and orally to healthy female volunteers under fasting conditions.
Ten healthy female subjects are selected on the basis of the following criteria: age of 45-65 years (inclusive), nonsmokers or past smokers (at least 6 months before dosing), body-mass index (BMI)=18.5 to 30 kg/m^2 (inclusive at the time of the screening).
At the start of the first and the second period of the study, between 07:00 am and 07:28 am, 5 subjects receive a single dose of the sublingual formulation of estetrol by administering one estetrol tablet (tablet weight 80 mg; 10 mg estetrol) and 5 subjects receive a single oral dose of the oral estetrol formulation by administering one estetrol tablet (tablet weight 83 mg; 10 mg estetrol), ingested together with 200 ml water. […]
The estetrol concentration in the collected blood samples is determined by means of HPLC/MS/MS. The concentrations of glucuronided estetrol (D-ring) in the urine samples is also determined with the help of HPLC/MS/MS.

[4] = humans, cited from earlier work
DMBA mammary tumour = DMBA mammary tumour model; extent and dose level similar to tamoxifen and ovariectomy; cited from earlier work
[5] = target: T1, sex hormone binding globulin (SHBG) (Homo sapiens, UniProt P04278); details: in vitro; cited from earlier work
T1 sequence (P04278 30-402): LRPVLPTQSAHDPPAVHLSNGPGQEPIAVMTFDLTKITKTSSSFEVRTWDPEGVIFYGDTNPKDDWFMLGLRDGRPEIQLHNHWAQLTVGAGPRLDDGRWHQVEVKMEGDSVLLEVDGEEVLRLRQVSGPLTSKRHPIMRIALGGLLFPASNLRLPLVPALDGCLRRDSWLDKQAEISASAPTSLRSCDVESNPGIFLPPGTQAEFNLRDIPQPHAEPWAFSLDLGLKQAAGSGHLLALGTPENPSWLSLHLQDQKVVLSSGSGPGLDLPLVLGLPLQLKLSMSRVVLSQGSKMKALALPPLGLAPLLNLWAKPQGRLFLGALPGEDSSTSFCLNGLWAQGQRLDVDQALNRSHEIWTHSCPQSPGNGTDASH

production of SHBG = details: in vitro; cited from earlier work

C[C@]12CC[C@@H]3c4ccc(O)cc4CC[C@H]3[C@@H]1[C@@H](O)[C@@H](O)[C@@H]2O [estetrol, 1,3,5 (10)-estratrien-3,15α,16α,17β-tetrol]
Estrogenic effects on vagina, uterus, body weight, bone mass, bone strength, hot flushes and ovulation [1]: exhibited estrogenic effects | Binding selectivity for estrogen receptors (estrogen receptors): binds highly selective to the estrogen receptors with preference for the ERα form of the receptor | Effect in the presence of 17β-estradiol [2]: anti-estrogenic effect | Bioavailability of sublingually administered estetrol versus orally administered estetrol ([3]; 80 mg sublingual tablet vs 83 mg oral tablet, fasting): comparable or even superior to orally administered estetrol | Impact on a liver function parameter, sublingual versus oral ([3]; sublingual): less impact on a liver function parameter | Oral bioavailability ([4]; oral): high and dose-proportional | Terminal elimination half-life [4]: about 28 hours | Tumour development (DMBA mammary tumour): prevented tumour development | Binding to SHBG [5]: does not bind | Stimulation of the production of SHBG (production of SHBG): does not stimulate the production of SHBG
